Our source for the IC50 values is patent publication US20250221988A1 (Cullgen (Shanghai), Inc., priority 2022, published 2025).

Where two headings read alike, the source gives them in different places.

For one assay, the system named is MV4;11 cells. Briefly: Cell viability assay (CellTiter-Glo) in MV4;11 cells. It counts as cell-based. The conditions noted are these: read-out: MV4. In short, it runs like this: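 After three days' exposure to 3-fold serial compound dilutions (8 or 12 points), viability of cells seeded at 5000/well is read by CellTiter-Glo. Runs were done alone or combined with gilteritinib at 10 nM (MV4;11) or 20 nM (MOLM-13); IC50 from nonlinear regression.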
On the technique in general: ATP-based viability assays read luminescence as a measure of living cells.

The next assay concerns MOLM-13 cells. Briefly: Cell viability assay (CellTiter-Glo) in MOLM-13 cells. It counts as cell-based.
The mark [1] stands for this setting: Homo sapiens, MV4-11, 72 h, 11 IC50 (nM).
Setting [2] is: 11 IC50 (nM) + 10 nM Gil, MV4;11 cells, with 10 nM gilteritinib, three days.
The mark [3] stands for this setting: Homo sapiens, MOLM-13, 72 h, read-out: MOLM-13 IC50 (nM).
[4] abbreviates: read-out: MOLM-13 IC50 (nM) + 10 nM Gil, MOLM-13 cells, with gilteritinib, three days.
The mark [5] stands for this setting: Homo sapiens, MV4-11, 72 h, MV4;11 cells, compound alone, three days, 11 IC50.
Where [6] appears, read: MV4;11 cells, with 10 nM gilteritinib, three days, 11 IC50 (nM) + 10 nM Gil.
Setting [7] is: Homo sapiens, 72 h, MOLM-13 cells, compound alone, three days, read-out: MOLM-13 IC50.
Where [8] appears, read: MOLM-13 cells, with gilteritinib, three days, read-out: MOLM-13 IC50 (nM) + 10 nM Gil.

As to `O=C1CCC(N2C(=O)c3ccc(NC[C@H]4C[C@H](n5cc(-c6cccc(N7CCC7)c6)c(C6CC6)n5)C4)cc3C2=O)C(=O)N1` (stereo partly drawn) [GS-653, 5-(((Trans-3-(4-(3-(azetidin-1-yl)phenyl)-3-cyclopropyl-1H-pyrazol-1-yl)cyclobutyl)methyl)amino)-2-(2,6-dioxopiperidin-3-yl)isoindoline-1,3-dione], the IC50 in the assay with MV4;11 cells (setting [1]) was 100 to 1000 nM; in the assay on MV4;11 cells (setting [2]), 10 to 100 nM; in the assay with MOLM-13 cells (setting [3]), > 1000 nM; in the assay with MOLM-13 cells (setting [4]), 10 to 100 nM.
In the case of `O=C1CCC(N2Cc3ccc(CC[C@H]4C[C@H](n5cc(-c6cnc7ccccc7n6)c(C6CC6)n5)C4)cc3C2=O)C(=O)N1` (stereo partly drawn) [GS-725, 3-(6-(2-(Trans-3-(3-cyclopropyl-4-(quinoxalin-2-yl)-1H-pyrazol-1-yl)cyclobutyl)ethyl)-1-oxoisoindolin-2-yl)piperidine-2,6-dione], the IC50 in the assay with MV4;11 cells (setting [1]) is 100 to 1000 nM; in the assay with MV4;11 cells (setting [2]) it was 10 to 100 nM; in the assay on MOLM-13 cells (setting [3]), > 1000 nM; in the assay with MOLM-13 cells (setting [4]), 100 to 1000 nM.
Take `COc1ccnc2c1c(C1CC1)nn2[C@H]1C[C@H](CNc2ccc3c(c2)C(=O)N(C2CCC(=O)NC2=O)C3=O)C1` (stereo partly drawn) [GS-681, 5-(((Trans-3-(3-cyclopropyl-4-methoxy-1H-pyrazolo[3,4-b]pyridin-1-yl)cyclobutyl)methyl)amino)-2-(2,6-dioxopiperidin-3-yl)isoindoline-1,3-dione]: the IC50 is > 1000 nM in the assay on MV4;11 cells (setting [5]), 100 to 1000 nM with MV4;11 cells (setting [6]), > 1000 nM in the assay on MOLM-13 cells (setting [7]) and 10 to 100 nM in the assay on MOLM-13 cells (setting [8]).
As for `Cn1ncc2cnc(-c3cn([C@H]4C[C@H](COc5ccc6c(c5)C(=O)N(C5CCC(=O)NC5=O)C6=O)C4)nc3C3CC3)cc21` (stereo partly drawn) [GS-761, 5-((Trans-3-(3-cyclopropyl-4-(1-methyl-1H-pyrazolo[4,3-c]pyridin-6-yl)-1H-pyrazol-1-yl)cyclobutyl)methoxy)-2-(2,6-dioxopiperidin-3-yl)isoindoline-1,3-dione], the IC50 is > 1000 nM with MV4;11 cells (setting [5]), 100 to 1000 nM with MV4;11 cells (setting [6]), > 1000 nM with MOLM-13 cells (setting [7]) and 100 to 1000 nM with MOLM-13 cells (setting [8]).
Take `O=C1CCC(N2C(=O)c3ccc(NC[C@H]4C[C@H](n5cc(-c6ncc(F)cc6OC6CC6)c(C6CC6)n5)C4)cc3C2=O)C(=O)N1` (stereo partly drawn) [GS-752, 5-(((Trans-3-(4-(3-cyclopropoxy-5-fluoropyridin-2-yl)-3-cyclopropyl-1H-pyrazol-1-yl)cyclobutyl)methyl)amino)-2-(2,6-dioxopiperidin-3-yl)isoindoline-1,3-dione]: the IC50 in the assay with MV4;11 cells (setting [5]), in the assay on MV4;11 cells (setting [6]), with MOLM-13 cells (setting [7]) and in the assay with MOLM-13 cells (setting [8]) was < 10 nM each time.
For the compound `Nc1cnc2c(c1)c(C1CC1)nn2[C@H]1C[C@H](CNc2ccc3c(c2)C(=O)N(C2CCC(=O)NC2=O)C3=O)C1` (stereo partly drawn) [GS-756, 5-(((Trans-3-(5-amino-3-cyclopropyl-1H-pyrazolo[3,4-b]pyridin-1-yl)cyclobutyl)methyl)amino)-2-(2,6-dioxopiperidin-3-yl)isoindoline-1,3-dione], the IC50 in the assay on MV4;11 cells (setting [5]) and in the assay on MOLM-13 cells (setting [7]) was > 1000 nM each time.
`Cc1nc(-c2cn(C3CC(F)(CNc4ccc5c(c4)C(=O)N(C4CCC(=O)NC4=O)C5=O)C3)nc2C2CC2)ccc1F` (stereo not drawn) [GS-723, 5-(((Trans-3-(3-cyclopropyl-4-(5-fluoro-6-methylpyridin-2-yl)-1H-pyrazol-1-yl)-1-fluorocyclobutyl)methyl)amino)-2-(2,6-dioxopiperidin-3-yl)isoindoline-1,3-dione]: the IC50 in the assay with MV4;11 cells (setting [5]) lay in the range of 100 to 1000 nM; in the assay with MV4;11 cells (setting [6]) it was 10 to 100 nM; with MOLM-13 cells (setting [7]), 100 to 1000 nM; in the assay on MOLM-13 cells (setting [8]) it was 10 to 100 nM.
For the compound `O=C1CCC(N2C(=O)c3ccc(NC[C@H]4C[C@H](n5cc(-c6ccccc6N6CCNCC6)c(C6CC6)n5)C4)cc3C2=O)C(=O)N1` (stereo partly drawn) [GS-652, 5-(((Trans-3-(3-cyclopropyl-4-(2-(piperazin-1-yl)phenyl)-1H-pyrazol-1-yl)cyclobutyl)methyl)amino)-2-(2,6-dioxopiperidin-3-yl)isoindoline-1,3-dione], the IC50 in the assay with MV4;11 cells (setting [5]) was > 1000 nM; in the assay with MV4;11 cells (setting [6]), 10 to 100 nM; in the assay on MOLM-13 cells (setting [7]), > 1000 nM; in the assay with MOLM-13 cells (setting [8]) it was 100 to 1000 nM.
As for `CN(C)c1ccccc1-c1cn([C@H]2C[C@H](CNc3ccc4c(c3)C(=O)N(C3CCC(=O)NC3=O)C4=O)C2)nc1C1CC1` (stereo partly drawn) [GS-650, 5-(((trans-3-(3-Cyclopropyl-4-(2-(dimethylamino)phenyl)-1H-pyrazol-1-yl)cyclobutyl)methyl)amino)-2-(2,6-dioxopiperidin-3-yl)isoindoline-1,3-dione], the IC50 in the assay with MV4;11 cells (setting [5]) was in the range of 10 to 100 nM; with MV4;11 cells (setting [6]), 10 to 100 nM; with MOLM-13 cells (setting [7]) it was 100 to 1000 nM; in the assay on MOLM-13 cells (setting [8]), 10 to 100 nM.
As to `O=C1CCC(N2C(=O)c3ccc(NC[C@H]4C[C@H](n5cc(-c6ncccc6[C@H]6C[C@@H](O)C6)c(C6CC6)n5)C4)cc3C2=O)C(=O)N1` (stereo partly shown) [GS-771], the IC50 is 10 to 100 nM in the assay with MV4;11 cells (setting [5]), < 10 nM in the assay on MV4;11 cells (setting [6]), 10 to 100 nM in the assay with MOLM-13 cells (setting [7]) and 10 to 100 nM in the assay on MOLM-13 cells (setting [8]).
For `O=C1CCC(N2C(=O)c3cc(F)c(NCCC[C@H]4C[C@H](n5cc(-c6cnc7ccccc7n6)c(C6CC6)n5)C4)cc3C2=O)C(=O)N1` (stereo partly drawn) [GS-718, 5-((3-(Trans-3-(3-cyclopropyl-4-(quinoxalin-2-yl)-1H-pyrazol-1-yl)cyclobutyl)propyl)amino)-2-(2,6-dioxopiperidin-3-yl)-6-fluoroisoindoline-1,3-dione], the IC50 in the assay on MV4;11 cells (setting [5]) and with MOLM-13 cells (setting [7]) was > 1000 nM in each case.
For `NC1CCN(c2ccc3ncc(-c4cn([C@H]5C[C@H](CNc6ccc7c(c6)C(=O)N(C6CCC(=O)NC6=O)C7=O)C5)nc4C4CC4)nc3c2)C1` (stereo partly drawn) [GS-706, 5-(((Trans-3-(4-(7-(3-aminopyrrolidin-1-yl)quinoxalin-2-yl)-3-cyclopropyl-1H-pyrazol-1-yl)cyclobutyl)methyl)amino)-2-(2,6-dioxopiperidin-3-yl)isoindoline-1,3-dione], the IC50 was 10 to 100 nM with MV4;11 cells (setting [5]), < 10 nM in the assay with MV4;11 cells (setting [6]), 10 to 100 nM in the assay with MOLM-13 cells (setting [7]) and < 10 nM in the assay on MOLM-13 cells (setting [8]).
For `O=C1CCC(N2C(=O)c3ccc(NC[C@H]4C[C@H](n5cc(-c6cc7c(cn6)cnn7CC(F)(F)F)c(C6CC6)n5)C4)cc3C2=O)C(=O)N1` (relative stereo) [GS-704, 5-(((Trans-3-(3-cyclopropyl-4-(1-(2,2,2-trifluoroethyl)-1H-pyrazolo[4,3-c]pyridin-6-yl)-1H-pyrazol-1-yl)cyclobutyl)methyl)amino)-2-(2,6-dioxopiperidin-3-yl)isoindoline-1,3-dione], the IC50 is 10 to 100 nM with MV4;11 cells (setting [5]), < 10 nM in the assay with MV4;11 cells (setting [6]), 10 to 100 nM in the assay on MOLM-13 cells (setting [7]) and < 10 nM in the assay with MOLM-13 cells (setting [8]).
As for `O=C1CCC(N2C(=O)c3ccc(NC[C@H]4C[C@H](n5nc(C6CC6)c6cccc(N7CCNCC7)c65)C4)cc3C2=O)C(=O)N1` (stereo partly drawn) [GS-765, 5-(((Trans-3-(3-cyclopropyl-7-(piperazin-1-yl)-1H-indazol-1-yl)cyclobutyl)methyl)amino)-2-(2,6-dioxopiperidin-3-yl)isoindoline-1,3-dione], the IC50 with MV4;11 cells (setting [5]) is > 1000 nM; with MV4;11 cells (setting [6]), 100 to 1000 nM; in the assay with MOLM-13 cells (setting [7]), > 1000 nM; with MOLM-13 cells (setting [8]), 100 to 1000 nM.
In the case of `Cc1nn([C@H]2C[C@H](CNc3ccc4c(c3)C(=O)N(C3CCC(=O)NC3=O)C4=O)C2)c2ccccc12` (stereo partly drawn) [GS-689, 2-(2,6-Dioxopiperidin-3-yl)-5-(((trans-3-(3-methyl-1H-indazol-1-yl)cyclobutyl)methyl)amino)isoindoline-1,3-dione], the IC50 in the assay on MV4;11 cells (setting [5]) lay within 10 to 100 nM; in the assay with MV4;11 cells (setting [6]), 10 to 100 nM; in the assay on MOLM-13 cells (setting [7]), 100 to 1000 nM; with MOLM-13 cells (setting [8]), 10 to 100 nM.
For `O=C1CCC(N2C(=O)c3ccc(NC[C@H]4C[C@H](n5cc(-c6cnc7cc(N8CC(O)C8)ccc7n6)c(C6CC6)n5)C4)cc3C2=O)C(=O)N1` (stereo partly drawn) [GS-712, 5-(((Trans-3-(3-cyclopropyl-4-(6-(3-hydroxyazetidin-1-yl)quinoxalin-2-yl)-1H-pyrazol-1-yl)cyclobutyl)methyl)amino)-2-(2,6-dioxopiperidin-3-yl)isoindoline-1,3-dione], the IC50 in the assay with MV4;11 cells (setting [5]), in the assay with MV4;11 cells (setting [6]), in the assay with MOLM-13 cells (setting [7]) and in the assay with MOLM-13 cells (setting [8]) was < 10 nM throughout.
For `Cc1ccnc2c1c(C1CC1)nn2[C@H]1C[C@H](CNc2ccc3c(c2)C(=O)N(C2CCC(=O)NC2=O)C3=O)C1` (stereo partly drawn) [GS-679, 5-(((Trans-3-(3-cyclopropyl-4-methyl-1H-pyrazolo[3,4-b]pyridin-1-yl)cyclobutyl)methyl)amino)-2-(2,6-dioxopiperidin-3-yl)isoindoline-1,3-dione], the IC50 is > 1000 nM in the assay on MV4;11 cells (setting [5]), 100 to 1000 nM in the assay on MV4;11 cells (setting [6]), > 1000 nM with MOLM-13 cells (setting [7]) and 100 to 1000 nM in the assay on MOLM-13 cells (setting [8]).
For the compound `O=C1CCC(N2C(=O)c3ccc(NC[C@H]4C[C@H](n5nc(C6CC6)c6cncnc65)C4)cc3C2=O)C(=O)N1` (stereo partly drawn) [GS-663, 5-(((Trans-3-(3-cyclopropyl-1H-pyrazolo[3,4-d]pyrimidin-1-yl)cyclobutyl)methyl)amino)-2-(2,6-dioxopiperidin-3-yl)isoindoline-1,3-dione], the IC50 was > 1000 nM in the assay on MV4;11 cells (setting [5]), > 1000 nM with MOLM-13 cells (setting [7]) and 100 to 1000 nM with MOLM-13 cells (setting [8]).
